Test results taken from patent US9078436B2 (priority 2012, dated 2015).
Where two headings read alike, the source gives them in different places.

How the values were obtained:
[1] = pH of 0.1M solution of the acids tested (Table 1); type: physicochemical
[2] = Conversion of PNMDC to MITC as a function of pH; type: physicochemical; details: FIGS. 1 and 2; over three hours and over five minutes
From the text: In the decomposition of monoalkyldithiocarbamate salt, the rate at which alkyl isothiocyanate is formed can be determined by the pH of the solution. […] At lower pH levels, a competing reaction, particularly hydrolysis to form carbon disulfide and methylammonium ion, can occur, thus lowering the yield of MITC.
While good conversion can occur over a range of pH values, the results shown in FIGS. 1 and 2 indicate an optimum conversion occurring at about pH 3 (e.g., 2.5-3.5).
An HPLC method was developed to allow the reaction mixtures to be analyzed in real time. This procedure stopped the decomposition of PNMDC by converting any unreacted dithiocarbamate ion to a stable nickel salt:
This compound was then detected by its UV absorption at 365 nm. MITC is unaffected by the presence of the Ni^++ ion and is detected by its UV absorption at 230 nm.

SMILES: O=C(O)c1ccccc1 [Benzoic Acid]
- pH of 0.1M Solution [1]: 2.61

SMILES: O=CO [Formic Acid]
- pH of 0.1M Solution [1]: 2.39

SMILES: O=C(O)CC(O)(CC(=O)O)C(=O)O [Citric Acid (1), Citric Acid]
- pH of 0.1M Solution [1]: 2.06
- pH of 0.1M Solution ([1]; listed as Citric Acid (2)): 2.88

SMILES: CC(=O)O [Acetic Acid]
- pH of 0.1M Solution [1]: 2.88

SMILES: CNC(=S)[S-].[K+] [PNMDC, potassium N-methyldithiocarbamate]
- pH of optimum conversion of PNMDC to MITC [2]: ~3
